Laboratory results: patent US7592308B2, “F3W variants of the lantibiotic mersacidin and its use” (priority 2004, dated 2009)
Values after ≈ are worked out from the molar mass of the structure shown. Like-named read-outs stand apart in the source and are kept apart here. Square brackets hold non-standard residues; d marks the D form. Ends that are not written are not given here. Dha = C=C(N)C(=O)O

Key:
E. coli SM1411 = experiment: MIC, two-fold serial dilution in broth; format: cell-based; settings: Table 8B; MHB + 50 μg/ml calcium; duplicate
Method: (§1) A selection of the variants produced in Example 1 above were tested further for activity against a range of bacteria. Minimum inhibitory concentrations (MICs) for all organisms with the exception of Streptococcus pneumoniae were determined by two-fold serial antibiotic dilutions in Mueller-Hinton broth (MHB) supplemented with 50 μg/ml calcium as calcium chloride dihydrate. Minimum inhibitory concentrations (MICs) for S. pneumoniae were determined by two-fold serial antibiotic dilutions in Brain Heart Infusion (BHI) broth supplemented with 50 μg/ml calcium as calcium chloride dihydrate. Antimicrobial agent stock solutions were prepared and stored according to NCCLS standard M7-A6.
Actively growing broth cultures were diluted to contain […] by adjusting to an absorbance of 0.2-0.3 at 600 nm, equivalent to the McFarland 0.5 standard. They were then diluted a further 1:100 in broth. The assays were performed in duplicate in sterile 96-well microtitre plates in a total volume of 200 μl (160 μl broth, 20 μl antibiotic, 20 μl inoculum) in a concentration range from 64 μg/ml to 0.06 μg/ml. The 12th well of the microtitre plate contained no antimicrobial agent. Vancomycin was used as a reference antibiotic for quality control. […]

M. luteus = settings: data of Szekat et al.; cited from earlier work
E. faecium 4147 VRE = format: cell-based, Enterococcus faecium; settings: 4147 VRE
Method: (§2) MIC tests were performed with some of the variants of Example 2 on a range of other organisms. The results are shown in Tables 9 and 10 (figures in μg/ml): […]

E. faecium 4147-1 = format: cell-based, Enterococcus faecium; settings: 4147-1
Method: as §2

S. aureus 1012-13 MRSA = format: cell-based, Staphylococcus aureus
Method: as §2

S. aureus CS = format: cell-based, Staphylococcus aureus
Method: as §2

S. aureus COL MRSA = format: cell-based, Staphylococcus aureus
Method: as §2

S. aureus SG511 = format: cell-based, Staphylococcus aureus
Method: as §2

S. pneumoniae R6 = format: cell-based, Streptococcus pneumoniae; settings: Table 8B; BHI broth + 50 μg/ml calcium; duplicate
Method: as §1
(§3) Actively growing broth cultures were diluted to contain […] by adjusting to an absorbance of 0.2-0.3 at 600 nm, equivalent to the McFarland 0.5 standard. They were then diluted a further 1:100 in broth. The assays were performed in duplicate in sterile 96-well microtitre plates in a total volume of 200 μl (160 μl broth, 20 μl antibiotic, 20 μl inoculum) in a concentration range from 64 μg/ml to 0.06 μg/ml. The 12th well of the microtitre plate contained no antimicrobial agent. Vancomycin was used as a reference antibiotic for quality control. Plates were incubated aerobically, shaking, for 18-20 hours at 37° C. with the MIC defined as the lowest concentration of drug that produced no visible growth.

S. pyogenes 13608 = format: cell-based, Streptococcus pyogenes
Method: as §2

S. pyogenes 16205 = format: cell-based, Streptococcus pyogenes
Method: as §2

M. luteus 4698 = format: cell-based, Micrococcus luteus
Method: as §1, §3

S. aureus R33 = format: cell-based, Staphylococcus aureus; settings: Table 8A; MHB + 50 μg/ml calcium; duplicate
Method: as §1, §3

S. aureus SH1000 = format: cell-based, Staphylococcus aureus; settings: Table 8A; MHB + 50 μg/ml calcium; duplicate
Method: as §1, §3

E. faecium 19579 = experiment: MIC, two-fold serial dilution in broth; format: cell-based, Enterococcus faecium; settings: Table 8A; MHB + 50 μg/ml calcium; duplicate
Method: as §1, §3

E. faecium 7131121 = experiment: MIC, two-fold serial dilution in broth; format: cell-based, Enterococcus faecium; settings: Table 8A; MHB + 50 μg/ml calcium; duplicate
Method: as §1, §3

E. faecalis 29212 = experiment: MIC, two-fold serial dilution in broth; format: cell-based, Enterococcus faecalis; settings: Table 8A; MHB + 50 μg/ml calcium; duplicate
Method: as §1, §3

S. epidermidis 11047 = format: cell-based, Staphylococcus epidermidis; settings: Table 8B; MHB + 50 μg/ml calcium; duplicate
Method: as §1, §3

E. faecium 11.4103A = experiment: MIC, two-fold serial dilution in broth; format: cell-based, Enterococcus faecium; settings: Table 8B; MHB + 50 μg/ml calcium; duplicate
Method: as §1, §3

| Compound | MIC E. coli SM1411 (E. coli SM1411) | MIC against M. luteus (M. luteus) [µg/mL] | MIC E. faecium 4147 VRE (E. faecium 4147 VRE) [µg/mL] | MIC E. faecium 4147-1 (E. faecium 4147-1) [µg/mL] | MIC S. aureus 1012-13 MRSA (S. aureus 1012-13 MRSA) [µg/mL] | MIC S. aureus CS (S. aureus CS) [µg/mL] | MIC S. aureus COL MRSA (S. aureus COL MRSA) [µg/mL] | MIC S. aureus SG511 (S. aureus SG511) [µg/mL] | MIC S. pneumoniae R6 (S. pneumoniae R6) | MIC S. pyogenes 13608 (S. pyogenes 13608) [µg/mL] | MIC S. pyogenes 16205 (S. pyogenes 16205) [µg/mL] | MIC M. luteus 4698 (M. luteus 4698; 4698) [µg/mL] | MIC S. aureus R33 (S. aureus R33) | MIC S. aureus SH1000 (S. aureus SH1000) | MIC E. faecium 19579 (E. faecium 19579) | MIC E. faecium 7131121 (E. faecium 7131121) | MIC E. faecalis 29212 (E. faecalis 29212) | MIC S. epidermidis 11047 (S. epidermidis 11047) | MIC E. faecium 11.4103A (E. faecium 11.4103A) | MIC M. luteus 4698 (M. luteus 4698; Table 8B, MHB + 50 μg/ml calcium, duplicate) |
| --- | --- | --- | --- | --- | --- | --- | --- | --- | --- | --- | --- | --- | --- | --- | --- | --- | --- | --- | --- | --- |
| C=C1NC(=O)C2NC(=O)[C@H](CC(C)C)NC(=O)C(NC(=O)[C@@H]3CSC(C)C(NC(=O)[C@H](Cc4ccccc4)NC(=O)C4NC(=O)[C@@H](N)CSC4C)C(=O)N[C@@H](CC(C)C)C(=O)N4CCC[C@H]4C(=O)NCC(=O)NCC(=O)NCC(=O)NCC(=O)N[C@@H](C(C)C)C(=O)N3)C(C)SC[C@H](NC(=O)[C@H](CCC(=O)O)NC1=O)C(=O)N[C@@H]([C@@H](C)CC)C(=O)NC=CSC2C (stereo partly shown) [Mersacidin, mersacidin] | >64, >64 μg/ml | 0.195 (≈ 0.107 µM) | 64 (≈ 35 µM) | 64 (≈ 35 µM) | 8 (≈ 4.38 µM) | 4 (≈ 2.19 µM) | 16 (≈ 8.76 µM) | 2 (≈ 1.1 µM) | <4, <4 μg/ml | 0.25 (≈ 0.137 µM) | 0.5 (≈ 0.274 µM) | 0.5 (≈ 0.274 µM) |  |  |  |  |  |  |  |  |
| G10N: mersacidin variant (CTFTLPGGGNVCTLT[Dha]ECIC; thioether (positions not given here); not fully specified; UniProt P43683 49-68, looked up, variant G10N) |  |  |  |  |  |  |  |  | >64, >64 μg/ml |  |  |  | >64, >64 μg/ml | >64, >64 μg/ml | >64, >64 μg/ml | >64, >64 μg/ml | >64, >64 μg/ml | >64, >64 μg/ml |  |  |
| G10V: mersacidin variant (CTFTLPGGGVVCTLT[Dha]ECIC; thioether (positions not given here); not fully specified; UniProt P43683 49-68, looked up, variant G10V) |  |  |  |  |  |  |  |  |  |  |  |  | >64, >64 μg/ml | >64, >64 μg/ml | >64, >64 μg/ml |  | >64, >64 μg/ml |  | >64, >64 μg/ml | <4, <4 μg/ml |
